Data taken from ChEMBL document CHEMBL4616626, “Design, synthesis and biological evaluation of HIV-1 protease inhibitors with morpholine derivatives as P2 ligands in combination with cyclopropyl as P1' ligand” (Bioorg Med Chem Lett, 2020).

Molecular target: Human immunodeficiency virus type 1 protease (Human immunodeficiency virus 1, UniProt Q72874)
Assay: Inhibition of HIV1 protease by FRET assay

Row | IC50 | Compound
1 | 1530 nM | C[C@@H]1CN(CC(=O)N[C@@H](Cc2ccccc2)[C@H](O)CN(C2CC2)S(=O)(=O)c2ccc(N)cc2)CCO1
2 | 190 nM | COc1ccc(S(=O)(=O)N(C[C@@H](O)[C@H](Cc2ccccc2)NC(=O)CN2CCO[C@H](C)C2)C2CC2)cc1
3 | > 10000 nM | O=C(CN[C@@H](Cc1ccccc1)[C@H](O)CN(C1CC1)S(=O)(=O)c1ccc([N+](=O)[O-])cc1)N1CCOCC1
4 | 1150 nM | Nc1ccc(S(=O)(=O)N(C[C@@H](O)[C@H](Cc2ccccc2)NCC(=O)N2CCOCC2)C2CC2)cc1
5 | 1690 nM | O=S(=O)(c1ccc(C(F)(F)F)cc1)N(C[C@@H](O)[C@H](Cc1ccccc1)NCCN1CCOCC1)C1CC1
6 | 260 nM | COc1ccc(S(=O)(=O)N(C[C@@H](O)[C@H](Cc2ccccc2)NC(=O)N2CCOCC2)C2CC2)cc1
7 | 80 nM | O=C(N[C@@H](Cc1ccccc1)[C@H](O)CN(C1CC1)S(=O)(=O)c1ccc([N+](=O)[O-])cc1)OCCN1CCOCC1
8 | 2990 nM | C[C@@H]1CN(CC(=O)N[C@@H](Cc2ccccc2)[C@H](O)CN(C2CC2)S(=O)(=O)c2ccc(C(F)(F)F)cc2)CCO1
9 | 180 nM | COc1ccc(S(=O)(=O)N(C[C@@H](O)[C@H](Cc2ccccc2)NCC(=O)N2CCOCC2)C2CC2)cc1
10 | 5430 nM | O=C(CN1CCOCC1)N[C@@H](Cc1ccccc1)[C@H](O)CN(C1CC1)S(=O)(=O)c1ccc([N+](=O)[O-])cc1
11 | 400 nM | C[C@H]1CN(CC(=O)N[C@@H](Cc2ccccc2)[C@H](O)CN(C2CC2)S(=O)(=O)c2ccc(C(F)(F)F)cc2)CCO1
12 | 640 nM | Nc1ccc(S(=O)(=O)N(C[C@@H](O)[C@H](Cc2ccccc2)NC(=O)N2CCOCC2)C2CC2)cc1
13 | 1340 nM | C[C@H]1CN(CC(=O)N[C@@H](Cc2ccccc2)[C@H](O)CN(C2CC2)S(=O)(=O)c2ccc(N)cc2)CCO1
14 | 400 nM | O=C(CN1CCOCC1)N[C@@H](Cc1ccccc1)[C@H](O)CN(C1CC1)S(=O)(=O)c1ccc(C(F)(F)F)cc1
15 | 580 nM | C[C@H]1CN(CC(=O)N[C@@H](Cc2ccccc2)[C@H](O)CN(C2CC2)S(=O)(=O)c2ccc([N+](=O)[O-])cc2)CCO1
16 | 61 nM | Nc1ccc(S(=O)(=O)N(C[C@@H](O)[C@H](Cc2ccccc2)NC(=O)OCCN2CCOCC2)C2CC2)cc1
17 | 1270 nM | COc1ccc(S(=O)(=O)N(C[C@@H](O)[C@H](Cc2ccccc2)NC(=O)CN2CCO[C@@H](C)C2)C2CC2)cc1
18 | 610 nM | O=[N+]([O-])c1ccc(S(=O)(=O)N(C[C@@H](O)[C@H](Cc2ccccc2)NCCN2CCOCC2)C2CC2)cc1
19 | 120 nM | O=C(N[C@@H](Cc1ccccc1)[C@H](O)CN(C1CC1)S(=O)(=O)c1ccc(C(F)(F)F)cc1)OCCN1CCOCC1
20 | 1260 nM | O=C(CN[C@@H](Cc1ccccc1)[C@H](O)CN(C1CC1)S(=O)(=O)c1ccc(C(F)(F)F)cc1)N1CCOCC1
21 | 170 nM | COc1ccc(S(=O)(=O)N(C[C@@H](O)[C@H](Cc2ccccc2)NCCN2CCOCC2)C2CC2)cc1
22 | 53 to 54 nM | COc1ccc(S(=O)(=O)N(C[C@@H](O)[C@H](Cc2ccccc2)NC(=O)OCCN2CCOCC2)C2CC2)cc1
23 | 1040 nM | COc1ccc(S(=O)(=O)N(C[C@@H](O)[C@H](Cc2ccccc2)NC(=O)CN2CCOCC2)C2CC2)cc1
24 | 790 nM | O=C(N[C@@H](Cc1ccccc1)[C@H](O)CN(C1CC1)S(=O)(=O)c1ccc([N+](=O)[O-])cc1)N1CCOCC1
25 | > 10000 nM | Nc1ccc(S(=O)(=O)N(C[C@@H](O)[C@H](Cc2ccccc2)NC(=O)CN2CCOCC2)C2CC2)cc1
26 | 47 nM | O=C(N[C@@H](Cc1ccccc1)[C@H](O)CN(C1CC1)S(=O)(=O)c1ccc(C(F)(F)F)cc1)N1CCOCC1
27 | 940 nM | Nc1ccc(S(=O)(=O)N(C[C@@H](O)[C@H](Cc2ccccc2)NCCN2CCOCC2)C2CC2)cc1
28 | 930 nM | C[C@@H]1CN(CC(=O)N[C@@H](Cc2ccccc2)[C@H](O)CN(C2CC2)S(=O)(=O)c2ccc([N+](=O)[O-])cc2)CCO1
